Source: patent US7524964B2, “Tetrahydrothiopyrano pyrazole cannabinoid modulators” (Janssen Pharmaceutica NV, priority 2005, dated 2009)
Where two headings read alike, the source gives them in different places.

Experiments:
human CB1 receptor = human CB1 receptor (Homo sapiens, UniProt P21554); test: Binding assay, cannabinoid CB1 receptor ([3H]-CP-55,940 displacement); design: expressed in transfected cells; host or cells: SK-N-MC cells, pcDNA3 CB-1 (human), semi-purified membranes; conditions: for inhibition at 0.2 µM: test concentration 0.2 μM (superscript a); for inhibition at 10 µM: test concentration 10 μM (superscript c)
Description: (§1) Binding Assay for CB1 or CB2 Agonists or Inverse Agonists
(§2) The human CB-1 and CB-2 receptors were stably expressed in SK-N-MC cells transfected with pcDNA3 CB-1 (human) or pcDNA3 CB-2 (human). The cells were grown in T-180 cell culture flasks under standard cell culture conditions at 37° C. in a 5% CO2 atmosphere. The cells were harvested by trypsinization and homogenized in a homogenization buffer (10 mM Tris, 0.2 mM MgCl2, 5 mM KCl, with protease inhibitors aprotinin, leupeptin, pepstatin A and bacitracin) and centrifuged (2000 g). The supernatant was then centrifuged in 2M sucrose (31,300 g) to produce a semi-purified membrane pellet. The pellet was resuspended in homogenization and store at −80° C.
(§3) On the day of the assay, the pellet was thawed on ice and diluted in assay buffer (50 mM Tris-HCl, 5 mM MgCl2, 2.5 mM EDTA, 0.5 mg/mL fatty acid free bovine serum albumin, pH 7.5). The diluted membrane was added with buffer, test compound or standard and the radioligand [H]^3+-CP-55,940_(0.2 nM) to the wells of a 96-well polypropylene plate. Non-specific binding was measured in wells containing 10 uM WIN 55,212. The plate was covered and incubated for 90 minutes at 30° C. The contents were then aspirated onto a Packard Unifilter G/C filter bottom plate prewet with 0.5% polyethyleneimine. The wells of the polypropylene plate were rinsed and aspirated seven times with a 0.9% saline-0.5% Tween 20 solution. The Unifilter plate was dried, a scintillation cocktail was added to each well and the counts representing binding were quantitated in a TopCount scintillation counter.
(§4) The IC50 binding values for compounds tested were calculated by linear regression and were obtained from studies in which varying compound concentrations were used. Where an IC50 was not obtained, test results are provided as percent inhibition at a test concentration of ^a0.2 μM, ^b1 μM or ^c10 μM.

human CB-2 receptor = molecular target: T1, human CB-2 receptor (Homo sapiens, UniProt P34972); test: Binding assay, cannabinoid CB2 receptor ([3H]-CP-55,940 displacement); conditions: for inhibition at 0.2 µM / inhibition at 10 µM: read-out: CB2 binding percent inhibition
T1 construct: expressed in transfected cells; host or cells: SK-N-MC cells, pcDNA3 CB-2 (human), semi-purified membranes
Description: as §1, §2, §3, §4

[1] = read-out: CB1 binding percent inhibition
[2] = test concentration 0.2 μM (superscript a)
[3] = test concentration 10 μM (superscript c)

Sequence of human CB1 receptor (P21554 whole entry): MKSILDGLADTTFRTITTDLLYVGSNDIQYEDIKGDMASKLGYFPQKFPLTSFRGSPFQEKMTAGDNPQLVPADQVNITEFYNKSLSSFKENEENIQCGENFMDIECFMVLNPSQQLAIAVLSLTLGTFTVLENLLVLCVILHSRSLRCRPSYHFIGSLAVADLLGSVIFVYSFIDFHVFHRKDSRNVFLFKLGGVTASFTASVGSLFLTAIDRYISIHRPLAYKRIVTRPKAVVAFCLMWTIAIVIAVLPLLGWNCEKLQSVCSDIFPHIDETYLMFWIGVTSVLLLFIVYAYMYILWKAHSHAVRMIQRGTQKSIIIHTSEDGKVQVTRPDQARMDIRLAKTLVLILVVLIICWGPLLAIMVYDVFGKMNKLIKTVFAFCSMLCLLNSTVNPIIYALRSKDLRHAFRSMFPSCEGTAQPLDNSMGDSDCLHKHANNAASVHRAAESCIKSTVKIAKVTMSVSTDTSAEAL
T1 sequence (P34972 whole entry): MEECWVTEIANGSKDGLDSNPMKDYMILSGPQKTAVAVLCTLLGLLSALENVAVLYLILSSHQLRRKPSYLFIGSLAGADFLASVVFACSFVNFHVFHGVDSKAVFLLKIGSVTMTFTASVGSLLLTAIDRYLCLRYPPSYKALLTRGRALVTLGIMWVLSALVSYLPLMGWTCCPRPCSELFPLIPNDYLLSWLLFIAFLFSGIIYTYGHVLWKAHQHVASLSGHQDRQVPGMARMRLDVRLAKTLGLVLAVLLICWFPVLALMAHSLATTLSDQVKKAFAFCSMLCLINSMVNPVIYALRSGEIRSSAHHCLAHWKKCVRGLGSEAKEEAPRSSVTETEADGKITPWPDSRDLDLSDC

Structure (SMILES)	inhibition at 0.2 µM (human CB1 receptor; [1]) [%]	inhibition at 0.2 µM (human CB-2 receptor; [2]) [%]	also measured
C[C@@H](NS(=O)(=O)/C=C/c1nn(-c2ccc(F)cc2F)c2c1CS(=O)(=O)CC2Cc1cccc(F)c1)C1CCCCC1 (stereo partly drawn) [Cpd 43, (E)-2-[1-(2,4-difluoro-phenyl)-7-(3-fluoro-benzyl)-5,5-dioxo-4,5,6,7-tetrahydro-1H-5λ^6-thiopyrano[4,3-c]pyrazol-3-yl]-ethenesulfonic acid [(1R)-1-cyclohexyl-ethyl]-amide]	41	11	
O=C(N[C@H]1CCCC[C@@H]1O)c1nn(-c2ccc(Cl)cc2Cl)c2c1CS(=O)(=O)C/C2=C\c1ccc(F)cc1 [Cpd 68, (7Z)-1-(2,4-dichloro-phenyl)-7-(4-fluoro-benzylidene)-5,5-dioxo-4,5,6,7-tetrahydro-1H-5λ^6-thiopyrano[4,3-c]pyrazole-3-carboxylic acid [(1S,2S)-2-hydroxy-cyclohexyl]-amide]	52	19	
O=C(NN1CCCCC1)c1nn(-c2ccc(Cl)cc2)c2c1CS(=O)(=O)C/C2=C\c1ccc(F)cc1 [Cpd 99, (7Z)-1-(4-chloro-phenyl)-7-(4-fluoro-benzylidene)-5,5-dioxo-4,5,6,7-tetrahydro-1H-5λ^6-thiopyrano[4,3-c]pyrazole-3-carboxylic acid piperidin-1-ylamide]	66	12	
C[C@H](NC(=O)c1nn(-c2ccc(Cl)cc2Cl)c2c1CSC/C2=C\c1ccc(F)cc1)c1ccccc1 [Cpd 62, (7Z)-1-(2,4-dichloro-phenyl)-7-(4-fluoro-benzylidene)-1,4,6,7-tetrahydro-thiopyrano[4,3-c]pyrazole-3-carboxylic acid [(1S)-1-phenyl-ethyl]-amide]		17	IC50 (human CB1 receptor): 48 nM
CC1CCCC(C)N1NC(=O)c1nn(-c2ccc(Cl)cc2Cl)c2c1CS(=O)(=O)C/C2=C\c1ccc(F)cc1 (centres unmarked) [Cpd 108, (7Z)-1-(2,4-dichloro-phenyl)-7-(4-fluoro-benzylidene)-5,5-dioxo-4,5,6,7-tetrahydro-1H-5λ^6-thiopyrano[4,3-c]pyrazole-3-carboxylic acid (2,6-dimethyl-piperidin-1-yl)-amide]	88	18	
O=C(NN1CCN(CCO)CC1)c1nn(-c2ccc(Cl)cc2Cl)c2c1CSC/C2=C\c1ccc(F)cc1 [Cpd 114, (7Z)-1-(2,4-dichloro-phenyl)-7-(4-fluoro-benzylidene)-1,4,6,7-tetrahydro-thiopyrano[4,3-c]pyrazole-3-carboxylic acid [4-(2-hydroxy-ethyl)-piperazin-1-yl]-amide]	6	5	
C[C@@H](NC(=O)c1nn(-c2ccc(Cl)cc2Cl)c2c1CS(=O)(=O)C/C2=C\c1ccc(Cl)o1)c1ccccc1 [Cpd 117, (7Z)-7-(5-chloro-furan-2-ylmethylene)-1-(2,4-dichloro-phenyl)-5,5-dioxo-4,5,6,7-tetrahydro-1H-5λ^6-thiopyrano[4,3-c]pyrazole-3-carboxylic acid [(1R)-1-phenyl-ethyl]-amide]			IC50 (human CB1 receptor): 9 nM; inhibition at 0.2 µM (human CB-2 receptor): 18%
C[C@@H](NC(=O)/C=C/c1nn(Cc2ccccc2)c2c1CS(=O)(=O)CC2)c1ccccc1 [Cpd 37, (2E)-3-(1-benzyl-5,5-dioxo-4,5,6,7-tetrahydro-1H-5λ^6-thiopyrano[4,3-c]pyrazol-3-yl)-N-[(1R)-1-phenyl-ethyl]-acrylamide]			inhibition at 10 µM (human CB1 receptor; [1]): 11%; inhibition at 10 µM (human CB-2 receptor; [3]): 7%
O=C(NN1CCCCCC1)c1nn(-c2ccc(Cl)cc2Cl)c2c1CSC/C2=C\c1ccc(F)cc1 [Cpd 112, (7Z)-1-(2,4-dichloro-phenyl)-7-(4-fluoro-benzylidene)-1,4,6,7-tetrahydro-thiopyrano[4,3-c]pyrazole-3-carboxylic acid azepan-1-ylamide]		8	IC50 (human CB1 receptor): 10 nM
O=S1(=O)Cc2c(/C=C/S(=O)(=O)NN3CCCCC3)nn(-c3ccc(F)cc3F)c2C(Cc2cccc(F)c2)C1 (centres unmarked) [Cpd 45, (E)-2-[1-(2,4-difluoro-phenyl)-7-(3-fluoro-benzyl)-5,5-dioxo-4,5,6,7-tetrahydro-1H-5λ^6-thiopyrano[4,3-c]pyrazol-3-yl]-ethenesulfonic acid piperidin-1-ylamide]	33	8	
NC(=O)c1nn(-c2ccc(Cl)cc2Cl)c2c1CS(=O)(=O)C/C2=C\c1ccc(F)cc1 [Cpd 71, (7Z)-1-(2,4-dichloro-phenyl)-7-(4-fluoro-benzylidene)-5,5-dioxo-4,5,6,7-tetrahydro-1H-5λ^6-thiopyrano[4,3-c]pyrazole-3-carboxylic acid amide]	18	13	
C[C@H](NS(=O)(=O)/C=C/c1nn(-c2ccc(F)cc2F)c2c1CS(=O)(=O)CC2Cc1cccc(F)c1)c1ccccc1 (stereo partly drawn) [Cpd 42, (E)-2-[1-(2,4-difluoro-phenyl)-7-(3-fluoro-benzyl)-5,5-dioxo-4,5,6,7-tetrahydro-1H-5λ^6-thiopyrano[4,3-c]pyrazol-3-yl]-ethenesulfonic acid [(1S)-1-phenyl-ethyl]-amide]	31	20	
O=C(N[C@@H]1c2ccccc2C[C@@H]1O)c1nn(-c2ccc(F)cc2F)c2c1CS(=O)(=O)CC2Cc1cccc(F)c1 (stereo partly drawn) [Cpd 51, 1-(2,4-difluoro-phenyl)-7-(3-fluoro-benzyl)-5,5-dioxo-4,5,6,7-tetrahydro-1H-5λ^6-thiopyrano[4,3-c]pyrazole-3-carboxylic acid [(1R,2S)-2-hydroxy-indan-1-yl]-amide]	35	9	
O=C(NN1CCCCC1)c1nn(-c2ccc(Cl)cc2)c2c1C[S+]([O-])C/C2=C\c1ccc(F)cc1 (centres unmarked) [Cpd 96, (7Z)-1-(4-chloro-phenyl)-7-(4-fluoro-benzylidene)-5-oxo-4,5,6,7-tetrahydro-1H-5λ^4-thiopyrano[4,3-c]pyrazole-3-carboxylic acid piperidin-1-ylamide]	43	9	
C[C@@H](NC(=O)c1nn(-c2ccc(Cl)cc2Cl)c2c1C[S+]([O-])C/C2=C\c1ccc(F)cc1)c1ccccc1 (stereo partly drawn) [Cpd 75, (7Z)-1-(2,4-dichloro-phenyl)-7-(4-fluoro-benzylidene)-5-oxo-4,5,6,7-tetrahydro-1H-5λ^4-thiopyrano[4,3-c]pyrazole-3-carboxylic acid [(1R)-1-phenyl-ethyl]-amide]		2	IC50 (human CB1 receptor): 14 nM
C[C@H](NC(=O)/C=C/c1nn(Cc2ccccc2)c2c1CSCC2)c1ccccc1 [Cpd 32, (2E)-3-(1-benzyl-1,4,6,7-tetrahydro-thiopyrano[4,3-c]pyrazol-3-yl)-N-[(1S)-1-phenyl-ethyl]-acrylamide]			inhibition at 10 µM (human CB1 receptor; [1]): 35%; inhibition at 10 µM (human CB-2 receptor; [3]): 47%
O=C(NN1CCCCC1)c1nn(-c2ccc(Cl)cc2Cl)c2c1C[S+]([O-])C/C2=C\c1ccc(F)cc1 (centres unmarked) [Cpd 79, (7Z)-1-(2,4-dichloro-phenyl)-7-(4-fluoro-benzylidene)-5-oxo-4,5,6,7-tetrahydro-1H-5λ^4-thiopyrano[4,3-c]pyrazole-3-carboxylic acid piperidin-1-ylamide]		10	IC50 (human CB1 receptor): 160 nM
O=C(NN1CCCCC1)c1nn(-c2ccc(Cl)cc2)c2c1CSC/C2=C\c1ccc(F)cc1 [Cpd 93, (7Z)-1-(4-chloro-phenyl)-7-(4-fluoro-benzylidene)-1,4,6,7-tetrahydro-thiopyrano[4,3-c]pyrazole-3-carboxylic acid piperidin-1-ylamide]		26	IC50 (human CB1 receptor): 36 nM
C[C@H](NC(=O)/C=C/c1nn(Cc2ccccc2)c2c1CS(=O)(=O)CC2)c1ccccc1 [Cpd 36, (2E)-3-(1-benzyl-5,5-dioxo-4,5,6,7-tetrahydro-1H-5λ^6-thiopyrano[4,3-c]pyrazol-3-yl)-N-[(1S)-1-phenyl-ethyl]-acrylamide]			inhibition at 1 µM (human CB1 receptor; test concentration 1 μM (superscript b), read-out: CB1 binding percent inhibition): 25.5%; inhibition at 10 µM (human CB1 receptor; [1]): 1%
CC(NS(=O)(=O)/C=C/c1c2c(nn1Cc1ccccc1)CC[S+]([O-])C2)C1CCCCC1 (centres unmarked) [Cpd 26, (E)-2-(2-benzyl-5-oxo-4,5,6,7-tetrahydro-2H-5λ^4-thiopyrano[4,3-c]pyrazol-3-yl)-ethenesulfonic acid (1-cyclohexyl-ethyl)-amide]			CB2 binding percent inhibition (human CB-2 receptor; test concentration 10 μM (superscript c), 10 µM): 32%; inhibition at 10 µM (human CB-2 receptor; [3]): 22%
CC(NS(=O)(=O)/C=C/c1nn(Cc2ccccc2)c2c1C[S+]([O-])CC2)c1ccccc1 (centres unmarked) [Cpd 29, (E)-2-(1-benzyl-5-oxo-4,5,6,7-tetrahydro-1H-5λ^4-thiopyrano[4,3-c]pyrazol-3-yl)-ethenesulfonic acid (1-phenyl-ethyl)-amide]			inhibition at 10 µM (human CB1 receptor; [1]): 8%
